Data published in the supplement of paper PMC4862054.

Key:
Details in all cases: incubation time: 72 h
BT-474 [1] = experiment: normalised response (% of control), CellTox Green; higher = less cell death (100 = DMSO, 0 = benzethonium chloride kill control)
Method in brief: (§1)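 CellTox Green fluorescence (485/520 nm) and, after 10 min at room temperature, CellTiter-Glo luminescence were read from breast cancer cell lines incubated 72 h in 384-well plates. Cells were seeded as 20 µl suspension onto compound at 5 concentrations in 10-fold steps over a 10,000-fold range chosen per compound. Each plate was normalised to 0.1 % DMSO (100) and a positive kill control (0). Values are normalised signals, one per concentration.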

BT-549 [2] = experiment: as above
Method in brief: as §1

HCC1143 [3] = experiment: as above
Method in brief: as §1

CAL-51 [4] = experiment: as above
Method in brief: as §1

CAL-85-1 [5] = experiment: as above
Method in brief: as §1

MDA-MB-468 [6] = experiment: as above
Method in brief: as §1

Hs578T [7] = experiment: as above
Method in brief: as §1

HCC1599 [8] = experiment: as above
Method in brief: as §1

CAL-120 [9] = experiment: as above
Method in brief: as §1

MDA-MB-436 [10] = experiment: as above
Method in brief: as §1

HCC1937 [11] = experiment: as above
Method in brief: as §1

MCF-10A [12] = experiment: as above
Method in brief: as §1

MFM-223 [13] = experiment: as above
Method in brief: as §1

MDA-MB-453 [14] = experiment: as above
Method in brief: as §1

DU-4475 [15] = experiment: as above
Method in brief: as §1

CAL-148 [16] = experiment: as above
Method in brief: as §1

HDQ-P1 [17] = experiment: as above
Method in brief: as §1

MDA-MB-231 [18] = experiment: as above
Method in brief: as §1

BT-474 [19] = experiment: normalised response (% of control), CellTiter-Glo; higher = more viable cells (100 = DMSO, 0 = benzethonium chloride kill control)
Description: (§2)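 DSRT, 72 h incubation, CellTox Green / CellTiter-Glo readout. Signal is normalised to DMSO and benzethonium chloride controls. Value is the normalised response at the highest dose.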

BT-549 [20] = experiment: as above
Description: as §2

HCC1143 [21] = experiment: as above
Description: as §2

CAL-51 [22] = experiment: as above
Description: as §2

CAL-85-1 [23] = experiment: as above
Description: as §2

MDA-MB-468 [24] = experiment: as above
Description: as §2

Hs578T [25] = experiment: as above
Description: as §2

HCC1599 [26] = experiment: as above
Description: as §2

SK-BR-3 = experiment: as above
Description: as §2

CAL-120 [27] = experiment: as above
Description: as §2

MDA-MB-436 [28] = experiment: as above
Description: as §2

HCC1937 [29] = experiment: as above
Description: as §2

MCF-10A [30] = experiment: as above
Description: as §2

MFM-223 [31] = experiment: as above
Description: as §2

MDA-MB-453 [32] = experiment: as above
Description: as §2

DU-4475 [33] = experiment: as above
Description: as §2

CAL-148 [34] = experiment: as above
Description: as §2

HDQ-P1 [35] = experiment: as above
Description: as §2

MDA-MB-231 [36] = experiment: as above
Description: as §2

Compound | normalised response (BT-474 [1]) [%] | normalised response (BT-549 [2]) [%] | normalised response (HCC1143 [3]) [%] | normalised response (CAL-51 [4]) [%] | normalised response (CAL-85-1 [5]) [%] | normalised response (MDA-MB-468 [6]) [%] | normalised response (Hs578T [7]) [%] | normalised response (HCC1599 [8]) [%] | normalised response (CAL-120 [9]) [%] | normalised response (MDA-MB-436 [10]) [%] | normalised response (HCC1937 [11]) [%] | normalised response (MCF-10A [12]) [%] | normalised response (MFM-223 [13]) [%] | normalised response (MDA-MB-453 [14]) [%] | normalised response (DU-4475 [15]) [%] | normalised response (CAL-148 [16]) [%] | normalised response (HDQ-P1 [17]) [%] | normalised response (MDA-MB-231 [18]) [%] | normalised response (BT-474 [19]) [%] | normalised response (BT-549 [20]) [%] | normalised response (HCC1143 [21]) [%] | normalised response (CAL-51 [22]) [%] | normalised response (CAL-85-1 [23]) [%] | normalised response (MDA-MB-468 [24]) [%] | normalised response (Hs578T [25]) [%] | normalised response (HCC1599 [26]) [%] | normalised response (SK-BR-3) [%] | normalised response (CAL-120 [27]) [%] | normalised response (MDA-MB-436 [28]) [%] | normalised response (HCC1937 [29]) [%] | normalised response (MCF-10A [30]) [%] | normalised response (MFM-223 [31]) [%] | normalised response (MDA-MB-453 [32]) [%] | normalised response (DU-4475 [33]) [%] | normalised response (CAL-148 [34]) [%] | normalised response (HDQ-P1 [35]) [%] | normalised response (MDA-MB-231 [36]) [%]
C[C@H]1C[C@@H]2[C@H]([C@@H](O)C[C@@]3(C)[C@H]2CC[C@]3(O)C(=O)CO)[C@@]2(C)C=CC(=O)C=C12 [Methylprednisolone] (10000 nM) | 99.9 | 111 | 121 | 119 | 73.1 | 151 | 126 | 86.3 | 102 | 91.9 | 94.8 | 99.1 | 93.2 | 101 | 103 | 93.7 | 111 | 154 | 151 | 98.4 | 104 | 130 | 112 | 106 | 108 | 103 | 94.5 | 77.7 | 102 | 97.5 | 101 | 99.6 | 96.7 | 104 | 112 | 89.9 | 146
Cc1cnc(NC(=O)Nc2cc(Br)c(C)cc2OC[C@@H]2CNCCO2)cn1 [Rabusertib] (1000 nM) | 103 | 109 | 129 | 111 | 59.3 | 137 | 103 | 95.7 | 106 | 104 | 114 | 109 | 82.7 | 104 | 102 | 58.9 | 110 | 100 | 100 | 91.5 | 99.5 | 110 | 87.8 | 102 | 71.3 | 29.4 | 48.6 | 102 | 116 | 80.9 | 112 | 98.2 | 77.2 | 106 | 112 | 100 | 92.1
COc1cc2nccc(Oc3ccc(NC(=O)Nc4cc(C)on4)c(Cl)c3)c2cc1OC [Tivozanib] (10000 nM) | 85.2 | 126 | 110 | 25 | 100 | 134 | 21.6 | 102 | 89.6 | 104 | 111 | 91.7 | 93.8 | 104 | 98 | 78.1 | 93.9 | 77.7 | 50.3 | 64.2 | 86.2 | 70.7 | 76.6 | 52.2 | 63.8 | 77.2 | 70.8 | 50.6 | 79.6 | 61.6 | 42.7 | 34.3 | 64.3 | 91.9 | 77.6 | 62.2 | 46
O=C(O)CCCCC(CCSCc1ccccc1)SCc1ccccc1 (stereo not drawn) [CPI-613] (10000 nM) | 94.8 | 80.4 | 92.7 | 103 | 88.7 | 131 | 94.3 | 102 | 98.6 | 91.2 | 80.9 | 104 | 97.6 | 104 | 98.8 | 99.7 | 104 | 90.9 | 98.9 | 96.5 | 100 | 97.5 | 97.5 | 98.2 | 99.2 | 101 | 106 | 104 | 98.2 | 108 | 103 | 102 | 105 | 100 | 105 | 106 | 93.6
Cc1ccc(-c2cc(C(F)(F)F)nn2-c2ccc(S(N)(=O)=O)cc2)cc1 [Celecoxib] (10000 nM) | 93 | 113 | 68.4 | 107 | 104 | 62.7 | 68.1 | 103 | 101 | 99.8 | 116 | 82.2 | 95.2 | 99 | 99.5 | 101 | 105 | 104 | 92.9 | 104 | 108 | 118 | 102 | 103 | 97.3 | 109 | 97.4 | 106 | 104 | 101 | 108 | 93.5 | 94.7 | 101 | 99.9 | 89.8 | 96.8
Oc1ncc(N(CCCl)CCCl)c(O)n1 [Uracil mustard] (10000 nM) | 107 | 94.2 | 115 | 97.5 | 95.4 | 133 | 135 | 99.1 | 107 | 97.6 | 98.4 | 123 | 100 | 98 | 100 | 104 | 83.4 | 101 | 99.5 | 97.9 | 105 | 78.5 | 103 | 101 | 98.3 | 115 | 100 | 107 | 99.1 | 98.9 | 101 | 104 | 89.4 | 99.4 | 107 | 98.1 | 95.6
O=C(/C=C/c1cccnc1)NCCCCC1CCN(C(=O)c2ccccc2)CC1 [Daporinad] (1000 nM) | 97.5 | 91.1 | 105 | 108 | 93.5 | 49.6 | 73.1 | 90.5 | 101 | 97.3 | 67.6 | 93.1 | 88.1 | 99.5 | 101 | 98.8 | 108 | 117 | 19.9 | 103 | 13.2 | 138 | 14.3 | 0.79 | 6.81 | 0.76 | 110 | 14 | 37.5 | 17.5 | 9.14 | 4.89 | 14.8 | 4.62 | 51.5 | 15.9 | 19.2
COc1cc2c(Oc3ccc4[nH]c(C)cc4c3F)ncnc2cc1OCCCN1CCCC1 [Cediranib] (1000 nM) | 95.7 | 97.4 | 123 | 96.8 | 78.4 | 153 | 127 | 112 | 88.1 | 94.6 | 114 | 91.5 | 91.4 | 105 | 103 | 101 | 102 | 117 | 104 | 83.6 | 99.8 | 128 | 100 | 90.8 | 84.7 | 92.8 | 106 | 90.4 | 100 | 91.7 | 70.5 | 56.6 | 103 | 95.5 | 110 | 80.8 | 105
O=C(Cc1ccc(-c2ccc(OCCN3CCOCC3)cc2)cn1)NCc1ccccc1 [KX2-391] (10000 nM) | 79.9 | 64.9 | 110 | 48.7 | 45.3 | 45.4 | 26.2 | 67.6 | 84 | 51 | 12.5 | 50.1 | 28 | 99.2 | 97.6 | 84.2 | 8.87 | 50.1 | 52 | 45.8 | 56.3 | 25.6 | 56.5 | 28 | 18.4 | 9.36 | 19.9 | 60.8 | 26.2 | 69.1 | 77 | 34.5 | 61.2 | 58.9 | 54.9 | 73.8 | 46.6
